Source: PMC12301332, “Biased antagonism of a series of bicyclic CXCR2 intracellular allosteric modulators” (Frontiers in Pharmacology, 2025)

Columns and labels:
[1] = molecular target: T1, CXCR2 (Homo sapiens, UniProt P25025); assay: NanoBRET-based G protein activation inhibition assay (REGA-SIGN Gαi1 dissociation) in HEK293A.CXCR2 cells; format: cell-based; conditions: n = 3; for IC50: mean; for Imax Gαi1 (maximum observed inhibitory effect): normalized to Imax of navarixin = 100%
T1 construct: expressed in transfected cells
T1 sequence (P25025 1-360): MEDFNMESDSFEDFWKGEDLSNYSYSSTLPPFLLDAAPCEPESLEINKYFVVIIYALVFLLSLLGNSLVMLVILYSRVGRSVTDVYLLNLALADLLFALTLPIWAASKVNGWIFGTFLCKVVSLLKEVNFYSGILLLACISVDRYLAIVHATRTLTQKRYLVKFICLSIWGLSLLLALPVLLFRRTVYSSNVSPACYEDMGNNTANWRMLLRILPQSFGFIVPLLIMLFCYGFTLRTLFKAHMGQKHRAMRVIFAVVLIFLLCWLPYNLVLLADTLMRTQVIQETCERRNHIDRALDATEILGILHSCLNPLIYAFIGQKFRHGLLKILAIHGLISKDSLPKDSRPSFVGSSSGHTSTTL
Protocol: Cells were trypsinized and resuspended at 3 × 10^5 cell/mL in the growth medium, whereafter they were incubated for 2 hours at RT. Cells were transfected in suspension using FuGENE® HD Transfection Reagent at a 3:1 reagent to DNA ratio in Opti-MEMTM I Reduced-Serum Medium, with the final DNA concentration of 1 μg/μL. The transfection mixture was incubated for 10 min at RT before adding it to the cell suspension. Transfected cells were seeded at 3.0 × 10^4 cells/well in a white, clear, flat-bottom 96-well plate coated with 100 μg/mL poly-D-lysin ([…], Sigma Aldrich) and incubated for 48 h at 37°C and 5% CO2. […] (2023)]. Following the 48-h incubation period, cells were washed with the assay buffer. Compounds were serially diluted in 1:500 Nano-Glo® Vivazine^TM working solution (#N2581, Promega), and 90 μL of compound/Vivazine mix was added, followed by incubation for 45 min at 37°C and 5% CO2. Plates were transferred to the FLIPR Penta system (Molecular Devices) at 37°C, and all steps onward are automated and performed by the FLIPR Penta system. After a 10-min equilibration period, the baseline BRET signal was determined by five consecutive reads followed by automatic administration of 10 μL of 10× ligand (Table 1) to the cell plate. Changes in the BRET signal was measured for 10 min, with each read spaced by 2.5 s. […] BRET ratios were extracted from ScreenWorks software (Molecular Devices) and represent the ratio between the acceptor emission of […]2 or mNG (G protein or β-arrestin recruitment, respectively) and NLuc donor emission. The basal BRET ratio was defined as the average BRET ratio of the five consecutive readings preceding ligand addition. Changes in BRET values post ligand administration (ΔBRET) were calculated for each well as a percentage difference to the previously defined basal BRET ratio. Average ΔBRET values were baseline corrected by subtracting the average negative control BRET ratio (unstimulated condition). […] AUCs were normalized to the positive control (stimulated condition); whereafter, dose-response curves were fitted to log (inhibitor) vs response (three parameters) in GraphPad 10.2.0 (GraphPad Software). […] Calculation 1: calculation of the BRET signal. • 1. […] NC correctedΔBRET=Δ[…]. • 4. a. Neg AUC of NC correctedΔBRET=Gα activation read out. b. Pos AUC of NC correctedΔBRET=β-arrestin recruitment.

[2] = molecular target: T1, CXCR2; assay: Bias analysis (bias plot, bias index) of β-arrestin1 recruitment inhibition versus Gαi1 activation inhibition, navarixin as reference; format: cell-based; conditions: for differences in bias index between the various CXCR2 ligands (H2): one-way ANOVA followed by Tukey's test; for bias index vs navarixin, statistical significance (H1): one-sample T-test
Protocol: For signaling bias calculations, constraints were set to bottom values equal to zero. The calculated top values generated by nonlinear fit log (inhibitor) vs response (three parameters) in GraphPad 10.2.1 were taken as Imax. […] The bias index values were calculated, as is shown in calculation 2. Briefly, log(Imax/IC50) was calculated. […] Finally, the bias index was calculated by subtracting the ∆log (Imax/IC50) of the tested compound from the stated reference pathway from that of the pathway of interest. […] The statistical significance of H1 was evaluated using a one-sample T-test with Benjamini-Hochberg correction applied for multiple comparisons, whereas H2 was assessed using a one-way ANOVA followed by Tukey’s test.
Bias index=∆LogImax/IC50P1:β−arr1−∆LogImax/IC50P2:Gai1 .
Bias plots are equimolar comparisons between the two pathways of interest.

IC50 ([1]; CXCL1 at EC80)	Imax Gαi1 (maximum observed inhibitory effect) ([1]; CXCL1 at EC80)	IC50 ([1]; CXCL2 at EC80)	Imax Gαi1 (maximum observed inhibitory effect) ([1]; CXCL2 at EC80)	IC50 ([1]; CXCL3 at EC80)	Imax Gαi1 (maximum observed inhibitory effect) ([1]; CXCL3 at EC80)	IC50 ([1]; CXCL5 at EC80)	Imax Gαi1 (maximum observed inhibitory effect) ([1]; CXCL5 at EC80)	IC50 ([1]; CXCL6 at EC80)	Imax Gαi1 (maximum observed inhibitory effect) ([1]; CXCL6 at EC80)	IC50 ([1]; CXCL7 at EC80)	Imax Gαi1 (maximum observed inhibitory effect) ([1]; CXCL7 at EC80)	IC50 ([1]; CXCL8 at EC80)	Imax Gαi1 (maximum observed inhibitory effect) ([1]; CXCL8 at EC80)	differences in bias index between the various CXCR2 ligands (H2) [2]	bias index vs navarixin, statistical significance (H1) ([2]; CXCL1-induced responses)	Compound	bias index vs navarixin, statistical significance (H1) ([2]; CXCL2, CXCL5, and CXCL6 responses)	bias index vs navarixin, statistical significance (H1) ([2]; CXCL1-, CXCL2-, CXCL5-, CXCL6-, and CXCL8-induced responses)
> 15 µM	<50%	> 15 µM	<50%	> 15 µM	<50%	13.1 ± 4.76 µM	100%	> 15 µM	<50%	10.1 ± 4.8 µM	98.43 ± 2.62%	> 15 µM	<50%	statistically significant		CC(CCO)Nc1nc(SCc2cccc(F)c2F)nc2[nH]nnc12 (stereo not drawn) [MVH-33]		
> 15 µM		6.24 ± 1.15 µM	100%	> 15 µM		10.2 ± 6.52 µM	93.7 ± 5.53%	7.53 ± 1.74 µM		10.9 ± 9.58 µM		> 15 µM		statistically significant	highly significant	CC(CO)Nc1nc(SCc2cccc(F)c2F)nc2cnccc12 (stereo not drawn) [MVH-3]	nonsignificantly different from navarixin	
2.08 ± 0.42 µM	96.47 ± 3.69%	1.21 ± 0.63 µM	100%	14.8 ± 10.1 µM	100%	1.43 ± 0.71 µM	98.52 ± 2.04%	1.06 ± 0.75 µM	100%	0.75 ± 0.26 µM	94.94 ± 3.57%	2.49 ± 1.24 µM	100%			CC(CO)Nc1nc(SCc2cccc(F)c2F)nc2oncc12 (stereo not drawn) [MVH-24]		nonsignificantly different from navarixin
